Data reported in PMC6358863, “Involvement of the Hydroperoxy Group in the Irreversible Inhibition of Leukocyte-Type 12-Lipoxygenase by Monoterpene Glycosides Contained in the Qing Shan Lu Shui Tea” (Molecules, 2019).

What was measured:
15-lipoxygenase = biological target: T1, 15-lipoxygenase (Homo sapiens, UniProt P16050); test: 15-lipoxygenase inhibition assay; type: biochemical; details: 25 μM arachidonic acid, 30 °C, 5 min
T1 sequence (P16050 1-662): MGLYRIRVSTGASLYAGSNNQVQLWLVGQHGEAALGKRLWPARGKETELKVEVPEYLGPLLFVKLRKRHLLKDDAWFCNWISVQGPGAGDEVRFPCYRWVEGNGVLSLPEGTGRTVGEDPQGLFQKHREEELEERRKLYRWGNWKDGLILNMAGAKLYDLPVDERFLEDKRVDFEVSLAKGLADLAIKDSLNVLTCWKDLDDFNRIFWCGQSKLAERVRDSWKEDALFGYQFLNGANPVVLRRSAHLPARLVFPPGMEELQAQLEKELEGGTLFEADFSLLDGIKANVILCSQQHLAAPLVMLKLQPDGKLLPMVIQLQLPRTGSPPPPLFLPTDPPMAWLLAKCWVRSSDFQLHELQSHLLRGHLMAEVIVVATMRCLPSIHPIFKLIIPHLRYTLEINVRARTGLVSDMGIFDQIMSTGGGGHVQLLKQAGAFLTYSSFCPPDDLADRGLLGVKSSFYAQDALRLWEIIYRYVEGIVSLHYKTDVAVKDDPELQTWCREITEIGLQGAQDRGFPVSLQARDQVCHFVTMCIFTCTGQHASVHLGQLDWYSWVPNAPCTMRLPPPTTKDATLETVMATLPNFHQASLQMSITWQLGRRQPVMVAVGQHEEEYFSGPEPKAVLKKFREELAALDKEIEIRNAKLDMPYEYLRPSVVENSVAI
Description: (§1) Figure 6 Inhibition of various lipoxygenase and cyclooxygenase activities by liguroside A. Reactions were carried out under the standard conditions in the presence of liguroside A at various concentrations and the products were quantified, using a reverse-phase HPLC. Relative enzyme activities of the 15-lipoxygenase-1 (closed circles), platelet-type 12-lipoxygenase (open circles), 5-lipoxygenase (open lozenges), cyclooxygenase-1 (open triangles), and cyclooxygenase-2 (closed triangles), as compared to the activity without inhibitors, are shown.
(§2) The lipoxygenase and cyclooxygenase reactions were carried out, as described previously. […] The products extracted with ice-cold diethyl ether were analyzed by a reverse-phase HPLC, using a Waters Alliance system equipped with a COSMOSIL 5C18-MS-II column (5-μm particle, 250 × 4.6 mm i.d., Nacalai), with a solvent system of methanol-water-acetic acid (80:20:0.01, v/v), at a flow rate of 1 mL/min, as previously described. Absorption at 235 nm was continuously monitored, using a Waters 2489 UV/Visible detector (Waters, Milford, MA, USA). Protein concentration was determined using a bicinchoninic acid protein assay kit (Thermo Fisher Scientific, Waltham, MA, USA), with bovine serum albumin as a standard.

cyclooxygenase-1 = cyclooxygenase-1 (Homo sapiens, UniProt P23219); test: cyclooxygenase-1 inhibition assay; type: biochemical; details: 25 μM linoleic acid, 24 °C, 5 min
Chain of cyclooxygenase-1 (P23219 24-599, species assumed): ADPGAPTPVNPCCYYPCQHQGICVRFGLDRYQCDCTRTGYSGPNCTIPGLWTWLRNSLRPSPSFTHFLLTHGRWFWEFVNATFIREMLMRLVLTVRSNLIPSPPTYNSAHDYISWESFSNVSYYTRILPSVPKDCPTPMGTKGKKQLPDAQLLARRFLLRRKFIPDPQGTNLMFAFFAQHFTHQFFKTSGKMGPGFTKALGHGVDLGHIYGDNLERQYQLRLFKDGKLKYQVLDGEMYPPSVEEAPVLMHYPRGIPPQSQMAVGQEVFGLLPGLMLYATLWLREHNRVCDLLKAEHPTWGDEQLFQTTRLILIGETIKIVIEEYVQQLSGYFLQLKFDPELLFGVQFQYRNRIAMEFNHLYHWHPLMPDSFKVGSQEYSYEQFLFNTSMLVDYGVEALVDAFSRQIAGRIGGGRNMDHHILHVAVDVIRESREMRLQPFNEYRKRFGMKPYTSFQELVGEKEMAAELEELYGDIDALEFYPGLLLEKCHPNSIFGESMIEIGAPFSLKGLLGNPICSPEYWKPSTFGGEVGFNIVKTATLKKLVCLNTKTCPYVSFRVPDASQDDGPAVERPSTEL
Description: as §1, §2

cyclooxygenase-2 = biological target: T2, cyclooxygenase-2 (Homo sapiens, UniProt P35354); test: cyclooxygenase-2 inhibition assay; type: biochemical; details: 25 μM linoleic acid, 24 °C, 5 min
T2 sequence (P35354 18-604): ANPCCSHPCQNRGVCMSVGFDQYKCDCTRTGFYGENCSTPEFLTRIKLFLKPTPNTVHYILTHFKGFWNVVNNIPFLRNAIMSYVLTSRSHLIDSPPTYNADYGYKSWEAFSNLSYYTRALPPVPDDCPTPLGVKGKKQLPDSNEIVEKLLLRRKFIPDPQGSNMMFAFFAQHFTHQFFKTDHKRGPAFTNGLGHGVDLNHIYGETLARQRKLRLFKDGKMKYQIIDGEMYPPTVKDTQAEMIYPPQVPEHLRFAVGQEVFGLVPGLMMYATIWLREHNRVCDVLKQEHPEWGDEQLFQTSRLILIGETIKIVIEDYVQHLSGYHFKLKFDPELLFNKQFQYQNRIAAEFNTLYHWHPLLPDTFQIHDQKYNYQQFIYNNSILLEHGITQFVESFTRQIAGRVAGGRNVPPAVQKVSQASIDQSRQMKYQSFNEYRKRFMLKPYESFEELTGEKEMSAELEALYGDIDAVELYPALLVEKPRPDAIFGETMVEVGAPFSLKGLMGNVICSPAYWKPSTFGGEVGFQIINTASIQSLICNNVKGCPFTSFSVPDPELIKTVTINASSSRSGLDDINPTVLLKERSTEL
Description: as §1, §2

[1] = biological target: T3, platelet-type 12-lipoxygenase (Homo sapiens, UniProt P18054); test: platelet-type 12-lipoxygenase inhibition assay; type: biochemical; details: up to 100 μM; 30 min at 37 °C
T3 sequence (P18054 1-663): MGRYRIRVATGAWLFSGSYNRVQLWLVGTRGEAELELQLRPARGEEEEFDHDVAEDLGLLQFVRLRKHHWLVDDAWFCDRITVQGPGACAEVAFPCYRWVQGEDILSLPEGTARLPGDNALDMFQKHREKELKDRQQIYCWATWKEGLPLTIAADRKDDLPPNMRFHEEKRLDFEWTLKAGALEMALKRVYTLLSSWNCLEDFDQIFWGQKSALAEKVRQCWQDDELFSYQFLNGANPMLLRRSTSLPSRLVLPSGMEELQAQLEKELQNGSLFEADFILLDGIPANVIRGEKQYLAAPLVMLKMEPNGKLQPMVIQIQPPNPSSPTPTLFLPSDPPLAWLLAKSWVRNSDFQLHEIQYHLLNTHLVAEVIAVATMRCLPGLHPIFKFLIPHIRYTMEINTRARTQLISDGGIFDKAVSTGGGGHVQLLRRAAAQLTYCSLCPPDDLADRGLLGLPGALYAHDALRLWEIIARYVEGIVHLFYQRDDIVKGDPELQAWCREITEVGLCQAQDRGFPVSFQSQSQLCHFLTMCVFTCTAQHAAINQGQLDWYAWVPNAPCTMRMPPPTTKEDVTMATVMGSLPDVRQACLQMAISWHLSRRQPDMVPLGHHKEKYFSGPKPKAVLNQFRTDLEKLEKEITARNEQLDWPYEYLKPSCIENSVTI
Description: as §1, §2

[2] = biological target: T4, leukocyte-type 12-lipoxygenase (Mus musculus, UniProt P39654); parameters: method as in PMID 23579993; details: previous report; read-out: IC50, inhibition of leukocyte-type 12-lipoxygenase activity; cited from earlier work
T4 sequence (P39654 1-663): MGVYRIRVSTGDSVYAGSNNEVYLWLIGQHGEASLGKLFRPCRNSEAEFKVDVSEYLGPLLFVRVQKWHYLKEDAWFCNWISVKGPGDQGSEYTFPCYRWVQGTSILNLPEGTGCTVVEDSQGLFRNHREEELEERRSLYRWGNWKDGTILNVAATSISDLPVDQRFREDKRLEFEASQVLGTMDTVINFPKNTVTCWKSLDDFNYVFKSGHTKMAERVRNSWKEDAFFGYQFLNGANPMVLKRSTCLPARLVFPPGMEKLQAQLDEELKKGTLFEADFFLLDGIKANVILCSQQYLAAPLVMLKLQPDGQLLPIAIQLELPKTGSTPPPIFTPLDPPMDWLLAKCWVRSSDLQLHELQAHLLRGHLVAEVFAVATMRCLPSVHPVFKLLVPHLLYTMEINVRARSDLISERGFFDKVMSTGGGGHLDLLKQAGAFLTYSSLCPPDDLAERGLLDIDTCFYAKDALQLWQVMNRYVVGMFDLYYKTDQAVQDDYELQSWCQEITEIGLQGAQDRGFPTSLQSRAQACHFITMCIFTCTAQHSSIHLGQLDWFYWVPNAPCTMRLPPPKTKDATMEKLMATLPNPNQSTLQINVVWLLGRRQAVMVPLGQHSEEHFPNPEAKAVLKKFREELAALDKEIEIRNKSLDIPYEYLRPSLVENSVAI

## C/C(=C\CO[C@@H]1O[C@H](CO)[C@@H](OC(=O)/C=C/c2ccc(O)cc2)[C@H](O[C@@H]2O[C@@H](C)[C@H](O)[C@@H](O)[C@H]2O)[C@H]1O)C/C=C/C(C)(C)OO [liguroside A]
15-lipoxygenase
  IC50: 3.2 µM
cyclooxygenase-1
  IC50: 21.5 µM
cyclooxygenase-2
  IC50: 16.9 µM
[1]
  effect on platelet-type 12-lipoxygenase activity (in words): almost unaffected
[2]
  IC50: 1.7 µM
